Where two headings read alike, the source gives them in different places.
Tests used:
Rec-1 = assay: cell cytotoxicity EC50, CellTiter Glo, Mantle Cell Lymphoma cell line, Rec-1 sub-clone batch listed first; format: cell-based, human
Experimental: (§1) The SCLC and leukemia/lymphoma cell lines listed below were obtained from the American Type Culture Collection (Manassas, Va.), Deutsche Sammlung von Mikroorganismen und Zellkulturen (DSMZ, Braunsweig, Germany), or were the generous gift from Dr. Louis Staudt (National Cancer Institute) and were cultured as described in Tse, C., Shoemaker, A. R., Adickes, J., et al., “ABT-263: a potent and orally bioavailable Bcl-2 family inhibitor,” Cancer Res 2008; 68: 3421-3428; and Tahir, S. K., Yang, X., Anderson, M. G., et al., “Influence of Bcl-2 family members on the cellular response of small-cell lung cancer cell lines to ABT-737,” Cancer Res 2007; 67: 1176-1183.
(§2) Cells were treated at 10,000 or 50,000 cells per well for adherent or suspension cells, respectively, in 96-well microtiter plates in the presence of 10% human serum for 48 hours with or without ABT-263, in a humidified chamber with 5% CO2. ABT-263 was synthesized as previously described in Tse, C., Shoemaker, A. R., Adickes, J., et al., “ABT-263: a potent and orally bioavailable Bcl-2 family inhibitor,” Cancer Res 2008; 68: 3421-3428; and Oltersdorf, T., Elmore, S. W., Shoemaker, A. R., et al., “An inhibitor of Bcl-2 family proteins induces regression of solid tumours,” Nature 2005; 435: 677-681, and cell cytotoxicity EC50 values were assessed using CellTiter Glo (Promega, Madison Wis.).

Granta = assay: cell cytotoxicity EC50, CellTiter Glo, Mantle Cell Lymphoma cell line; format: cell-based, human
Experimental: as §1, §2

SP53 = assay: as above; format: cell-based, human
Experimental: as §1, §2

JVM-13 = assay: as above; format: cell-based, human
Experimental: as §1, §2

JVM-2 = assay: as above; format: cell-based, human
Experimental: as §1, §2

Mino = assay: as above; format: cell-based, human
Experimental: as §1, §2

HBL-2 = assay: as above; format: cell-based, human
Experimental: as §1, §2

JeKo-1 = assay: as above; format: cell-based, human
Experimental: as §1, §2

NCI-H865 = assay: sensitivity of SCLC cell line, procedure of Oltersdorf; format: cell-based; conditions: Homo sapiens, read-out: sensitivity class by EC50
Experimental: (§3) The following SCLC cell lines were obtained from ATCC (Manassis, Va.): NCI-H889, NCI-H1963, NCI-H1417, NCI-H146, NCI-H187, DMS53, NCI-H510, NCI-H209, NCI-H211, NCI-H345, NCI-H524, NCI-H69, DMS79, SHP77, NCI-H1688, NCI-H446, NCI-H740, NCI-H1048, NCI-H82, NCI-H196, SW1271, H69AR, NCI-H526, NCI-H865, NCI-H748, NCI-H711, and DMS114. All cells were cultured in the ATCC recommended media at 37° C. in a humidified atmosphere containing 5% CO2. The following leukemia and lymphoma cell lines were obtained from ATCC (Manassis, Va.): MV-4-11, RS4;11, Loucy, KG-1A, DOHH2, Rs11380, CCRF-HSB-2, CCRF-CEM, CEM/C1, Reh, SUP-B15, MOLT-4, SUDHL4, HL-60, RPMI 8226, A3, Daudi, WSU-NHL, Pfeiffer, Jurkat I 9.2, Jurkat, MEG-01, U-937, K-562, and Raji.
(§4) The 27 SCLC cell lines were tested for sensitivity to ABT-737 using the procedure described in Oltersdorf, T., “An inhibitor of Bcl-2 family proteins induces regression of solid tumours”, Nature, 435: 677-681, 2005, with a cell line classified as sensitive if its EC50<5 μM and as resistant if its EC50>5 µM. The sensitive cell line group consisted of NCI-H889, NCI-H1963, NCI-H1417, NCI-H146, DMS 53, NCI-H187, NCI-H510, NCI-H209, NCI-H345, NCI-H526, NCI-H211, NCI-H865, NCI-H524, NCI-H748, DMS 79, NCI-H69, NCI-H711, SHP 77, NCI-H1688, and the resistant cell line group was comprised of NCI-H446, NCI-H740, NCI-H1048, NCI-H82, NCI-H196, SW1271, DMS 114, and NCI-H69AR.

NCI-H524 = assay: as above; format: cell-based; conditions: Homo sapiens, read-out: sensitivity class by EC50
Experimental: as §3, §4

[1] = 10% human serum, 48 hours, read-out: EC50
[2] = Homo sapiens, read-out: Response Designation

## CC1(C)CCC(c2ccc(Cl)cc2)=C(CN2CCN(c3ccc(C(=O)NS(=O)(=O)c4ccc(N[C@H](CCN5CCOCC5)CSc5ccccc5)c(S(=O)(=O)C(F)(F)F)c4)cc3)CC2)C1 [ABT-263, N-(4-(4-((2-(4-chlorophenyl)-5,5-dimethyl-1-cyclohex-1-en-1-yl)methyl)piperazin-1-yl)benzoyl)-4-(((1R)-3-(morpholin-4-yl)-1-((phenylsulfanyl)methyl)propyl)amino)-3-((trifluoromethyl)sulfonyl)benzenesulfonamide]
Rec-1; Homo sapiens, Rec1, read-out: Response Designation
  EC50: ≤ 4.8 µM
Rec-1; Rec1, 10% human serum, 48 hours, read-out: EC50
  EC50: 0.034 µM
Granta; [1]
  EC50: 0.041 µM
Granta; [2]
  EC50: ≤ 4.8 µM
SP53; [1]
  EC50: 0.14 µM
SP53; [2]
  EC50: ≤ 4.8 µM
JVM-13; Homo sapiens, JVM13, read-out: Response Designation
  EC50: > 4.8 µM
JVM-13; JVM13, 10% human serum, 48 hours, read-out: EC50
  EC50: 13 µM
JVM-2; [1]
  EC50: 4.11 µM
JVM-2; [2]
  EC50: ≤ 4.8 µM
Mino; Homo sapiens, MINO, read-out: Response Designation
  EC50: ≤ 4.8 µM
Mino; Mino, 10% human serum, 48 hours, read-out: EC50
  EC50: 0.033 µM
HBL-2; HBL2, 10% human serum, 48 hours, read-out: EC50
  EC50: 0.031 µM
HBL-2; Homo sapiens, HBL2, read-out: Response Designation
  EC50: ≤ 4.8 µM
JeKo-1; [1]
  EC50: 1.74 µM
JeKo-1; [2]
  EC50: ≤ 4.8 µM

## CN(C)CC[C@H](CSc1ccccc1)Nc1ccc(S(=O)(=O)NC(=O)c2ccc(N3CCN(Cc4ccccc4-c4ccc(Cl)cc4)CC3)cc2)cc1[N+](=O)[O-] [ABT-737, N-(4-(4-((4′-chloro(1,1′-biphenyl)-2-yl)methyl)piperazin-1-yl)benzoyl)-4-(((1R)-3-(dimethylamino)-1-((phenylsulfanyl)methyl)propyl)amino)-3-nitrobenzenesulfonamide]
NCI-H865
  EC50: < 5 µM
NCI-H524
  EC50: < 5 µM

From US20100028889A1, “COMPANION DIAGNOSTIC ASSAYS FOR CANCER THERAPY” (ABBOTT LABORATORIES, priority 2006, published 2010)
